For 27 compounds, IC50 results are on record in patent US8188139B2, “Heterocyclic-substituted phenyl methanones” (Hoffman-La Roche Inc., priority 2005, dated 2012).

This experiment concerns the target T1, mGlyT-1b (Mus musculus, UniProt P28571).
T1 construct: host or cells: Flp-in-CHO
T1 sequence (P28571 1-651 isoform P28571-2): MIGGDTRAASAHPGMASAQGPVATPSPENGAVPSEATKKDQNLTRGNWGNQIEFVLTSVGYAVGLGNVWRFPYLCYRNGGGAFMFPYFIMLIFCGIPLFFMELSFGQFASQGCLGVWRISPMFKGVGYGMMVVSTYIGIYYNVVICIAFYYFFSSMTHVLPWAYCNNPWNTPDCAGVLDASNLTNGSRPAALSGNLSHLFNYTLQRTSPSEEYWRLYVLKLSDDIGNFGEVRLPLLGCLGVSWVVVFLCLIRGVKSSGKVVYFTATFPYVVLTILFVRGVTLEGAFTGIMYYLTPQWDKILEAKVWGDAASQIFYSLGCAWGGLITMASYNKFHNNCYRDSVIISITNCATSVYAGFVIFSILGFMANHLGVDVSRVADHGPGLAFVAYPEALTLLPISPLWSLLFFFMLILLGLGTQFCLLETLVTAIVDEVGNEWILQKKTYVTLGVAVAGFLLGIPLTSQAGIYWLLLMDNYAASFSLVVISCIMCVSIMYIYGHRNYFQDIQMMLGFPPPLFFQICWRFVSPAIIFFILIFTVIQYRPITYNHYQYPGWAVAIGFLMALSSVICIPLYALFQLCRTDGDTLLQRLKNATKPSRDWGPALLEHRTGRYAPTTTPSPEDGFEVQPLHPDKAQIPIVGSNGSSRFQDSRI
Put plainly: Glycine uptake inhibition assay (mGlyT-1b). In kind it is cell-based. The conditions noted are these: inhibition of [3H]-glycine uptake in Flp-in-CHO cells transfected with mGlyT-1b cDNA; 20 min preincubation at 22° C.; read-out: IC50 (μM) at GlyT-1. An outline of the steps: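 Flp-in CHO cells stably expressing mouse GlyT-1b were preincubated with inhibitor (concentration range) for 20 min at 22° C. in pH 7.4 uptake buffer; nonspecific uptake defined with 10 mM glycine. [3H]-glycine 60 nM plus 25 μM unlabelled glycine was then added; cell-associated radioactivity counted by scintillation and IC50 derived.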

A word on the IC50: it is the concentration needed to halve the response being measured. For `COc1ccc2c(c1)CN(C(=O)c1cc(S(C)(=O)=O)ccc1OC(C)C)C2` [Example 74, (2-Isopropoxy-5-methanesulfonyl-phenyl)-(5-methoxy-1,3-dihydro-isoindol-2-yl)-methanone], the IC50 was 0.031 µM.
With `CS(=O)(=O)c1ccc(-c2ccc(F)c(F)c2)c(C(=O)N2Cc3cc(C(F)(F)F)cnc3C2)c1` [Example 148, (3′,4′-Difluoro-4-methanesulfonyl-biphenyl-2-yl)-(3-trifluoromethyl-5,7-dihydro-pyrrolo[3,4-b]pyridin-6-yl)-methanone], the IC50 is 0.032 µM.
On to `COc1cc2c(cc1Cl)CN(C(=O)c1cc(S(C)(=O)=O)ccc1SC(C)C)C2` [Example 71, (5-Chloro-6-methoxy-1,3-dihydro-isoindol-2-yl)-(2-isopropylsulfanyl-5-methanesulfonyl-phenyl)-methanone], for which the concentration for half-maximal inhibition (IC50) is 0.049 µM.
For the compound `Cc1cc(-c2ccc3c(c2)CN(C(=O)c2cc(S(C)(=O)=O)ccc2O[C@@H](C)C(F)(F)F)C3)ccn1` [Example 169, [5-Methanesulfonyl-2-((S)-2,2,2-trifluoro-1-methyl-ethoxy)-phenyl]-[5-(2-methyl-pyridin-4-yl)-1,3-dihydro-isoindol-2-yl]-methanone], the IC50 came to 0.003 µM.
To `Cc1cc(-c2ccc3c(c2)CN(C(=O)c2cc(S(C)(=O)=O)ccc2O[C@@H](C)C(F)(F)F)C3)cs1` [Example 170, [5-Methanesulfonyl-2-((S)-2,2,2-trifluoro-1-methyl-ethoxy)-phenyl]-[5-(5-methyl-thiophen-3-yl)-1,3-dihydro-isoindol-2-yl]-methanone] belongs 0.048 µM.
Turning to `C[C@H](Oc1ccc(S(C)(=O)=O)cc1C(=O)N1Cc2ccc(CC(F)(F)F)cc2C1)C(F)(F)F` [Example 290, [5-Methanesulfonyl-2-((S)-2,2,2-trifluoro-1-methyl-ethoxy)-phenyl]-[5-(2,2,2-tri-fluoro-ethyl)-1,3-dihydro-isoindol-2-yl]-methanone], the IC50 is 0.022 µM.
For the compound `CS(=O)(=O)c1ccc(-c2ccccc2)c(C(=O)N2CCc3c(C#N)cccc32)c1` [Example 204, 1-(4-Methanesulfonyl-biphenyl-2-carbonyl)-2,3-dihydro-1H-indole-4-carbonitrile], the IC50 came to 0.019 µM.
For `C[C@H](Oc1ccc(S(C)(=O)=O)cc1C(=O)N1Cc2ccc(OC(F)(F)F)cc2C1)C(F)(F)F` [Example 103, [5-Methanesulfonyl-2-((S)-2,2,2-trifluoro-1-methyl-ethoxy)-phenyl]-(5-trifluoro-methoxy-1,3-dihydro-isoindol-2-yl)-methanone], the IC50 is 0.046 µM.
As for `CS(=O)(=O)c1ccc(OCC(F)(F)C(F)(F)F)c(C(=O)N2Cc3cc(F)c(N4CCOCC4)cc3C2)c1` [Example 372, (5-Fluoro-6-morpholin-4-yl-1,3-dihydro-isoindol-2-yl)-[5-methanesulfonyl-2-(2,2,2,3,3-pentafluoropropoxy)-phenyl]-methanone], the IC50 is 0.004 µM.
The figure for `CC(C)Oc1ccc(S(C)(=O)=O)cc1C(=O)N1Cc2cc(Cl)c(Cl)cc2C1` [Example 5, (5,6-Dichloro-1,3-dihydro-isoindol-2-yl)-(2-isopropoxy-5-methanesulfonyl-phenyl)-methanone] is 0.042 µM; for `C[C@H](Oc1ccc(S(C)(=O)=O)cc1C(=O)N1Cc2ccc(C3CCOCC3)cc2C1)C(F)(F)F` [Example 269, [5-Methanesulfonyl-2-((S)-2,2,2-trifluoro-1-methyl-ethoxy)-phenyl]-[5-(tetrahydro-pyran-4-yl)-1,3-dihydro-isoindol-2-yl]-methanone] it is 0.014 µM.
Regarding `Cc1cc2c(cc1Cl)CN(C(=O)c1cc(S(C)(=O)=O)ccc1O[C@H](C)C(F)(F)F)C2` [Example 49, (5-Chloro-6-methyl-1,3-dihydro-isoindol-2-yl)-[5-methanesulfonyl-2-((R)-2,2,2-trifluoro-1-methyl-ethoxy)-phenyl]-methanone], the IC50 came out at 0.034 µM.
With `C[C@H](Oc1ccc(S(C)(=O)=O)cc1C(=O)N1Cc2cc(Cl)c(N3C[C@@H]4C[C@H]3CO4)cc2C1)C(F)(F)F` [Example 365, ((1S,4S)-5-Chloro-6-2-oxa-5-aza-bicyclo[2.2.1]hept-5-yl-1,3-dihydro-isoindol-2-yl)-[5-methanesulfonyl-2-((S)-2,2,2-trifluoro-1-methyl-ethoxy)-phenyl]-methanone], the IC50 amounted to 0.033 µM.
For `C[C@H](Oc1ccc(S(C)(=O)=O)cc1C(=O)N1Cc2ccc(-c3cccnc3)cc2C1)C(F)(F)F` [Example 317], the 50% inhibitory concentration (IC50) turned out to be 0.024 µM.
Regarding `Cc1csc(-c2ccc3c(c2)CN(C(=O)c2cc(S(C)(=O)=O)ccc2O[C@@H](C)C(F)(F)F)C3)c1` [Example 331, [5-Methanesulfonyl-2-(2,2,2-trifluoro-1-methyl-ethoxy)-phenyl]-[5-(4-methyl-thiophen-2-yl)-1,3-dihydro-isoindol-2-yl]-methanone], the 50% inhibitory concentration (IC50) came out at 0.022 µM.
The figure for `CS(=O)(=O)c1ccc(OCC(F)(F)C(F)(F)F)c(C(=O)N2Cc3cnc(C(F)(F)F)cc3C2)c1` [Example 155, [5-Methanesulfonyl-2-(2,2,3,3,3-pentafluoro-propoxy)-phenyl]-(6-trifluoromethyl-1,3-dihydro-pyrrolo[3,4-c]pyridin-2-yl)-methanone] is 0.044 µM; for `CC(C)Oc1ccc(S(C)(=O)=O)cc1C(=O)N1Cc2cc(F)c(OC3CCOCC3)cc2C1` [Example 378, [5-Fluoro-6-(tetrahydro-pyran-4-yloxy)-1,3-dihydro-isoindol-2-yl]-(2-isopropoxy-5-methanesulfonyl-phenyl)-methanone] it is 0.035 µM.
Regarding `CS(=O)(=O)c1ccc(OCC(F)(F)C(F)F)c(C(=O)N2Cc3cc(C(F)(F)F)cnc3C2)c1` [Example 158, [5-Methanesulfonyl-2-(2,2,3,3-tetrafluoro-propoxy)-phenyl]-(3-trifluoromethyl-5,7-dihydro-pyrrolo[3,4-b]pyridin-6-yl)-methanone], the IC50 amounted to 0.024 µM.
As to `CC(C)Oc1ccc(S(C)(=O)=O)cc1C(=O)N1Cc2cc(Cl)c(OC3CCOCC3)cc2C1` [Example 376, [5-Chloro-6-(tetrahydro-pyran-4-yloxy)-1,3-dihydro-isoindol-2-yl]-(2-isopropoxy-5-methanesulfonyl-phenyl)-methanone], the half-maximal inhibitory concentration (IC50) was found to be 0.016 µM.
Regarding `C[C@H](Oc1ccc(S(C)(=O)=O)cc1C(=O)N1Cc2ccc(-c3ccc(F)cc3)nc2C1)C(F)(F)F` [Example 382, [2-(4-Fluoro-phenyl)-5,7-dihydro-pyrrolo[3,4-b]pyridin-6-yl]-[5-methanesulfonyl-2-((S)-2,2,2-trifluoro-1-methyl-ethoxy)-phenyl]-methanone], the IC50 was found to be 0.024 µM.
The figure for `CC(C)(C)COc1ccc(S(C)(=O)=O)cc1C(=O)N1Cc2ccc(C3CCOCC3)cc2C1` [Example 273, [2-(2,2-Dimethyl-propoxy)-5-methane-sulfonyl-phenyl]-[5-(tetrahydro-pyran-4-yl)-1,3-dihydro-isoindol-2-yl]-methanone] is 0.047 µM; for `Cc1cc2c(cc1Cl)CN(C(=O)c1cc(S(C)(=O)=O)ccc1O[C@@H](C)C(F)(F)F)C2` [Example 24, (5-Chloro-6-methyl-1,3-dihydro-isoindol-2-yl)-[5-methanesulfonyl-2-((S)-2,2,2-trifluoro-1-methyl-ethoxy)-phenyl]-methanone] it is 0.019 µM; for `COc1cc2c(cc1Cl)CN(C(=O)c1cc(S(C)(=O)=O)ccc1O[C@H](C)C(F)(F)F)C2` [Example 218, (5-Chloro-6-methoxy-1,3-dihydro-isoindol-2-yl)-[5-methane-sulfonyl-2-((R)-2,2,2-trifluoro-1-methyl-ethoxy)-phenyl]-methanone] it is 0.04 µM.
The figure for `CS(=O)(=O)c1ccc(OCC(F)(F)C(F)(F)F)c(C(=O)N2Cc3cc(Cl)c(OC4CCOCC4)cc3C2)c1` [Example 380, [5-Chloro-6-(tetrahydro-pyran-4-yloxy)-1,3-dihydro-isoindol-2-yl]-[5-methanesulfonyl-2-(2,2,3,3,3-pentafluoro-propoxy)-phenyl]-methanone] is 0.005 µM.
On to `COc1cc2c(cc1Cl)CN(C(=O)c1cc(S(C)(=O)=O)ccc1OCC(C)C)C2` [Example 221, (5-Chloro-6-methoxy-1,3-dihydro-isoindol-2-yl)-(2-isobutoxy-5-methanesulfonyl-phenyl)-methanone], for which the IC50 stood at 0.022 µM.
In the case of `CC(C)Sc1ccc(S(C)(=O)=O)cc1C(=O)N1Cc2cc(Cl)c(Cl)cc2C1` [Example 16, (5,6-Dichloro-1,3-dihydro-isoindol-2-yl)-(2-isopropylsulfanyl-5-methanesulfonyl-phenyl)-methanone], the 50% inhibitory concentration (IC50) was determined as 0.048 µM.
Turning to `CS(=O)(=O)c1ccc(OCC(F)(F)C(F)(F)F)c(C(=O)N2Cc3cc(C(F)(F)F)cnc3C2)c1` [Example 157, [5-Methanesulfonyl-2-(2,2,3,3,3-pentafluoro-propoxy)-phenyl]-(3-trifluoromethyl-5,7-dihydro-pyrrolo[3,4-b]pyridin-6-yl)-methanone], the IC50 is 0.025 µM.
